Test results published in ChEMBL document CHEMBL1131798, “Synthesis and cytotoxicity of analogues of the antibiotic BE 10988 inhibitors of DNA topoisomerase II” (Bioorg Med Chem Lett, 1999).

Tested on: L1210
Assay: Antiproliferative activity using the murine L1210 leukemia cell line
Format: functional, cell-based
Conditions: Mus musculus

Structure (SMILES)	IC50 [µM]
COc1ccc(OC)c2c1c(-c1nc(C(N)=O)cs1)cn2C	> 10
COc1ccc(OC)c2c1c(C(=O)NCCN1CCOCC1)cn2C	> 100
Cn1cc(-c2nc(C(N)=O)cs2)c2c1C(=O)C=CC2=O	0.8
Cn1cc(C(=O)NCCN2CCOCC2)c2c1C(=O)C=CC2=O	6.5
